One series has as its system Abcb1 and Abcg2. The settings on record: brain efflux index (BEI) method; cited from earlier work.
For series [1] the following is noted: mouse, in vivo.
Experimental: Mice were anesthetized by intra-peritoneal injection of a mixture of ketamine and xylazine at 140:8 mg/kg. The right common carotid artery was ligated on the heart side and the right external carotid artery was ligated at the level of the bifurcation. A catheter was inserted into the right common carotid artery. The perfusion liquid was contained in a syringe placed in an infusion pump and connected to the catheter. Before the perfusion, the thorax of the animal was opened, the heart was removed and perfusion started immediately at flow of 2.5 mL/min. […] The brain uptake of tritiated tracers was also measured in the presence of unlabeled substrates [probucol 10 µM, desmosterol 20 µM orT4 10 µM], dissolved in their respective vehicles [DMSO ( < 0.5% in final perfusion fluid) or H2O/NaOH]. […] Labeled compounds were counted on a Tri-Carb® (PerkinElmer) counter with the appropriate dual (^14C/^3H) quenching curves and standards to measure disintegration per minute (dpm) in samples.
The brain uptake clearance (Clup, µL/g) is the ratio between the apparent tissue distribution volume (Vbrain, µL/g) of [^3H]Aβ1–40 or [^3H]desmosterol and the perfusion time (s). […] Xbrain is obtained by this equation: Xbrain=Xtot−(Vvasc×Cperf) where Xtot (dpm/g) is the total amount of tritiated tracer measured in the brain tissue sample (vascular and extravascular).
In series [2] the target is T1, Abcg4 (Mus musculus, UniProt Q91WA9). Briefly: In situ brain perfusion (ISBP): brain uptake clearance of tritiated tracers at the luminal BBB, WT and Abcg4-KO mice. The following applies: WT mice, 60 s perfusion.
Experimental: (§1) The function of Abcg4 at the mouse BBB was evaluated by using the in situ brain perfusion (ISBP) technique. This method was developed to study drug transport processes occurring at the luminal side of the BCECs[40],[41] and can be used to measure transport parameters, including the brain volume of distribution and the brain uptake clearance (Clup) of a target molecule over very short periods (30–120 s). The resulting Clup integrates the effect of enhancing or limiting factors introduced by the transporters located at the luminal side of BCECs. This method allows for measurement of the initial brain uptake of molecules, which results from both the influx and the efflux mechanisms involved in their transport. One of the advantages of this technique is the ability to administer inhibitors, or to use transporter deficient mice, in order to modulate function at the luminal side of the BBB.
(§2) Mice were anesthetized by intra-peritoneal injection of a mixture of ketamine and xylazine at 140:8 mg/kg. The right common carotid artery was ligated on the heart side and the right external carotid artery was ligated at the level of the bifurcation. A catheter was inserted into the right common carotid artery. The perfusion liquid was contained in a syringe placed in an infusion pump and connected to the catheter. Before the perfusion, the thorax of the animal was opened, the heart was removed and perfusion started immediately at flow of 2.5 mL/min. The perfusion fluid was Krebs bicarbonate-buffered physiological saline (128 mM NaCl, 24 mM NaHCO3, 4.2 mM KCl, 2.4 NaH2PO4, 1.5 mM CaCl2, 0.9 mM MgCl2 and 9 mM D-glucose).The solution was gassed with 95% O2−5% CO2 to bring the pH to 7.40 and warmed to 37 °C in water bath. Each mouse was perfused for 60 s with [^3H]Aβ1–40 (0.2 µCi/mL) or [^3H]desmosterol (0.2 µCi/mL). [^14C]sucrose was used as a vascular marker of the physical integrity of the BBB and co-perfused with the tritiated substrate. The brain uptake of tritiated tracers was also measured in the presence of unlabeled substrates [probucol 10 µM, desmosterol 20 µM orT4 10 µM], dissolved in their respective vehicles [DMSO ( < 0.5% in final perfusion fluid) or H2O/NaOH]. The experiment was terminated by decapitating the mouse. The right cerebral hemisphere and aliquots of the perfusion fluid were sampled in tared vials, weighted, digested in 2 mL of Solvable® solubilizer (PerkinElmer, Courtaboeuf, France) at 50 °C and mixed with 9 mL of Ultima Gold XR® scintillation cocktail (PerkinElmer). Labeled compounds were counted on a Tri-Carb® (PerkinElmer) counter with the appropriate dual (^14C/^3H) quenching curves and standards to measure disintegration per minute (dpm) in samples.
(§3) The brain uptake clearance (Clup, µL/g) is the ratio between the apparent tissue distribution volume (Vbrain, µL/g) of [^3H]Aβ1–40 or [^3H]desmosterol and the perfusion time (s). The Vbrain was calculated from the amount of radioactivity in the right brain hemisphere using the following equation: Vbrain=Xbrain/Cperf where Xbrain (dpm/g) is the calculated amount of tritiated tracer in the right cerebral parenchyma and Cperf (dpm/µL) is the concentration of tritiated tracer in the perfusion fluid. Xbrain is obtained by this equation: Xbrain=Xtot−(Vvasc×Cperf) where Xtot (dpm/g) is the total amount of tritiated tracer measured in the brain tissue sample (vascular and extravascular).
Series [3] concerns Abcg4. Described as above.
Experimental: as §1, §2, §3
For series [4], the target named is T1, Abcg4. Set-up: Wild-type C57BL/6 and Abcg4-KO mice had free access to standard laboratory food and water; from tissue; host or cells: brain capillary endothelial cells of living C57BL/6 mice (in situ brain perfusion). The following applies: HEK-Abcg4 transfected cells; cited from earlier work. From the text: We had shown previously that a probucol- and T4-sensitive transporter, different from Abca1, Abcb1 and Abcg2, restricted the brain entry of [^3H]Aβ1-40 through the mouse BBB[18],[43].

Series [5] has as its target T1, Abcg4. Briefly: Abcg4-mediated Aβ transport/efflux in HEK-Abcg4 transfected cells. In kind it is cell-based. The settings on record: data not shown. From the text: Abcg4 monomers come together to form a homodimer that includes nearly identical binding clefts which are opposite one another on the dimer surface. The homology model is an approximation of the dimer structure frozen in time which fails to capture the dynamic nature of protein motions. In vivo it is likely that nucleotide binding changes the overall configuration of the dimer to allow for sterol binding on one side of the complex followed by translocation of sterol to the dimer core before being exported from the membrane. One consequence of this movement could be that only one sterol-binding site exists at a given time. Thus, sterol binding would alternate from one binding site to the other as sterols are translocated. This mechanism could explain why the homology model has a single sterol-binding site despite the presence of two nearly identical binding clefts. […] Abcg4 seems to have two Aβ binding sites which agrees with our previous data that percent efflux of Aβ was greater than cholesterol[18] and with our current data that desmosterol competes with Aβ efflux. Furthermore, we previously measured, in HEK-Abcg4 transfected cells, the velocity of Aβ transport by Abcg4 as a function of [^3H]Aβ1-40 concentrations. […]

Series [6] has as its system Abcg4. The settings on record: mouse, in vivo.
Experimental: as §1, §2, §3
The next series relates to Abcb1. Set-up: method as in PMID 11181832. The following applies: read-out: Km of Aβ reported for Abcb1; cited from earlier work.
Where [7] appears, read: Abcg4-KO mice, probucol 10 µM, 60 s perfusion, 8–9 mice.
The mark [8] stands for this setting: T4 10 µM in perfusion buffer, means of 5–8 mice.
The mark [9] stands for this setting: Abcg4-KO mice, T4 10 µM, 60 s perfusion, 5–8 mice.

Like-named read-outs stand apart in the source and are kept apart here.

T1 sequence (Q91WA9 whole entry, the tested form may be a part): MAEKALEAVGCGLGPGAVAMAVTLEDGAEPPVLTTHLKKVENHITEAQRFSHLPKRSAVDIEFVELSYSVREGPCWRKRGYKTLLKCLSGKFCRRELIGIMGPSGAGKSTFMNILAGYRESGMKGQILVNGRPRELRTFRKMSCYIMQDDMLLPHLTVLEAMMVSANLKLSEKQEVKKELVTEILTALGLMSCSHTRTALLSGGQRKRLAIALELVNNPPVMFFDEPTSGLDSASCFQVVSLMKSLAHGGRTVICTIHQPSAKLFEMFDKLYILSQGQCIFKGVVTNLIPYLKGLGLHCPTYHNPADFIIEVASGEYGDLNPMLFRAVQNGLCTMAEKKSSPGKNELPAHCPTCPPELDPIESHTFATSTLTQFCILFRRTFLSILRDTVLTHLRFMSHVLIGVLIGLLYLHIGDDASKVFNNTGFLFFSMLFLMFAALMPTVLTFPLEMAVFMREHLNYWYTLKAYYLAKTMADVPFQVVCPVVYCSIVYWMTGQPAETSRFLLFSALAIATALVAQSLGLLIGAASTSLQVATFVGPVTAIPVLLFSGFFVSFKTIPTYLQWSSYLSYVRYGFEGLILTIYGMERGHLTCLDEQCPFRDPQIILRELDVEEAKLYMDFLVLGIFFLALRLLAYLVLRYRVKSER

For the compound `CNC(=O)c1cc(Oc2ccc(NC(=O)Nc3ccc(Cl)c(C(F)(F)F)c3)cc2)ccn1` [sorafenib], in the series on Abcb1 and Abcg2, the “Brain clearance in Mdr1a/b−/− mice compared with WT mice” value is given as “the same”, the “Decrease of brain clearance in Abcb1/Abcg2-deficient mice” value is reported as 2.5 fold and the “Decrease of brain clearance in Abcg2-deficient mice” value is given as 2 fold.

In the case of `OC[C@H]1O[C@@](CO)(O[C@H]2O[C@H](CO)[C@@H](O)[C@H](O)[C@H]2O)[C@@H](O)[C@@H]1O` [sucrose], the “Brain vascular volume (Vvasc), distribution volume of [14C]sucrose” value in series [1] is listed as “under 20 µL/g”.

Regarding `CC(C)(Sc1cc(C(C)(C)C)c(O)c(C(C)(C)C)c1)Sc1cc(C(C)(C)C)c(O)c(C(C)(C)C)c1` [probucol], at Abcg4 [2] (probucol 10 µM in perfusion fluid, [3H]desmosterol 0.2 µCi/mL, Krebs bicarbonate pH 7.40, 37 °C, means of 8–9 mice), the “Increase of [3H]desmosterol Clup in the presence vs absence of probucol (ER probucol/ctrl)” value amounted to 1.8 fold. The “Increase of [3H]Aβ1–40 Clup in the presence vs absence of probucol (ER probucol/ctrl)” value at Abcg4 [2] (probucol 10 µM, [3H]Aβ1–40 0.2 µCi/mL, pH 7.40, 37 °C, means of 8–9 mice) was 2.1 fold. For the same compound, in the series with Abcg4 [3] (setting [7]), the “Effect of probucol on [3H]Aβ1–40 Clup” value is on record as “this effect was lost” and the “Effect of probucol on [3H]desmosterol Clup” value was “this effect was lost”. Also, at Abcg4 [4], the “Inhibition of Abcg4-mediated Aβ efflux” value is on record as 2 fold.

Take `N[C@@H](Cc1cc(I)c(Oc2cc(I)c(O)c(I)c2)c(I)c1)C(=O)O` [T4, L-thyroxine]: the “Inhibition of Abcg4-mediated Aβ efflux” value on Abcg4 [5] was found to be 5.8 fold. In addition, on Abcg4 [2] (setting [8]), the “Increase of [3H]Aβ1–40 Clup in the presence vs absence of T4 (ER T4/ctrl)” value is on record as 2 fold and the “Increase of [3H]desmosterol Clup in the presence vs absence of T4 (ER T4/ctrl)” value was found to be 1.8 fold. Further, in the series on Abcg4 [3] (setting [9]), the “Effect of T4 on [3H]Aβ1–40 Clup” value is recorded as “this effect was lost” and the “Effect of T4 on [3H]desmosterol Clup” value is “this effect was lost”.

Usually Km stands for the substrate concentration at which the rate is half of its maximum. Turning to “Aβ1–40: amyloid-β peptide, 40 amino-acid form, used tritiated as transport tracer”, in the series with Abcg4 [6], the “Brain uptake clearance (Clup) in Abcg4-KO mice compared with WT mice” value is listed as “not significantly different”. For the same compound, the Km with Abcb1 is 12.5 µM.

With `CC(C)=CCC[C@@H](C)[C@H]1CC[C@H]2[C@@H]3CC=C4C[C@@H](O)CC[C@]4(C)[C@H]3CC[C@]12C` [desmosterol], the “Increase of [3H]Aβ1-40 Clup in the presence vs absence of desmosterol (ER desmosterol/ctrl)” value at Abcg4 [2] (desmosterol 20 µM in perfusion buffer, means of 5–7 mice) is 1.8 fold. The “Effect of desmosterol on [3H]Aβ1-40 Clup” value with Abcg4 [3] (Abcg4-KO mice, desmosterol 20 µM, 60 s perfusion, 5–7 mice) was “no significant effect”. In addition, in the series with Abcg4 [3] (WT C57BL/6 mice, right hemisphere, in situ brain perfusion, 3 animals per data point, r2 = 0.944), the “Time course of brain volume of distribution (Vbrain) as a function of perfusion time” value is listed as “linear increase”. For the same compound, in the series with Abcg4 [3] (in situ brain perfusion, 60 s, tracer 0.2 µCi/mL, absence of probucol, 8–9 mice, two-way ANOVA, Bonferroni), the “Brain uptake clearance (Clup) in Abcg4-KO mice compared with WT mice” value is reported as “not significantly different”.

Source of the values: paper PMC5645361, “Expression and function of Abcg4 in the mouse blood-brain barrier: role in restricting the brain entry of amyloid-β peptide” (Scientific Reports, 2017).
